Eleven compounds from US20180099931A1 (AbbVie S.à.r.l., priority 2016, published 2018) can be followed below.

Like-named read-outs stand apart in the source and are kept apart here. A value given as a limit tells only on which side of the number the result lay.

For the experiment, the target named is T1, F508delCFTR (Homo sapiens, UniProt P13569, DEL508-508).
T1 construct: expressed in transfected cells; host or cells: CFBE41o- human lung-derived epithelial cells (CFBE4lo-F508delCFTR-HRP), doxycycline-inducible
Put plainly: Cell Surface Expression-Horse Radish Peroxidase (CSE-HRP) Assay.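 On Maximum % activity (with co-corrector): co-corrector and positive control are both the same reference corrector at 2 µM.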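 On Maximum % activity (without co-corrector): percent of the 2 µM on-plate positive control corrector response above DMSO.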 The conditions noted are these: for Emax / Maximum % activity (with co-corrector): maximum at any tested concentration, normalized to on-plate positive control; for Emax: read-out: Maximum % activity (without co-corrector). Format: cell-based.

Where [1] appears, read: test compound without co-corrector.
Where [2] appears, read: test compound without co-corrector, read-out: EC50 (without co-corrector).
The mark [3] stands for this setting: with co-corrector (2 μM of 3-[(2R,4R)-4-({[1-(2,2-difluoro-1,3-benzodioxol-5-yl)cyclopropyl]carbonyl}amino)-7-methoxy-3,4-dihydro-2H-chromen-2-yl]benzoic acid).
Setting [4] is: with co-corrector (2 μM of 3-[(2R,4R)-4-({[1-(2,2-difluoro-1,3-benzodioxol-5-yl)cyclopropyl]carbonyl}amino)-7-methoxy-3,4-dihydro-2H-chromen-2-yl]benzoic acid), read-out: EC50 (with co-corrector).

The EC50 is the midpoint of the concentration-response curve.

T1 sequence (P13569 with tags, fused parts or gaps DEL508-508): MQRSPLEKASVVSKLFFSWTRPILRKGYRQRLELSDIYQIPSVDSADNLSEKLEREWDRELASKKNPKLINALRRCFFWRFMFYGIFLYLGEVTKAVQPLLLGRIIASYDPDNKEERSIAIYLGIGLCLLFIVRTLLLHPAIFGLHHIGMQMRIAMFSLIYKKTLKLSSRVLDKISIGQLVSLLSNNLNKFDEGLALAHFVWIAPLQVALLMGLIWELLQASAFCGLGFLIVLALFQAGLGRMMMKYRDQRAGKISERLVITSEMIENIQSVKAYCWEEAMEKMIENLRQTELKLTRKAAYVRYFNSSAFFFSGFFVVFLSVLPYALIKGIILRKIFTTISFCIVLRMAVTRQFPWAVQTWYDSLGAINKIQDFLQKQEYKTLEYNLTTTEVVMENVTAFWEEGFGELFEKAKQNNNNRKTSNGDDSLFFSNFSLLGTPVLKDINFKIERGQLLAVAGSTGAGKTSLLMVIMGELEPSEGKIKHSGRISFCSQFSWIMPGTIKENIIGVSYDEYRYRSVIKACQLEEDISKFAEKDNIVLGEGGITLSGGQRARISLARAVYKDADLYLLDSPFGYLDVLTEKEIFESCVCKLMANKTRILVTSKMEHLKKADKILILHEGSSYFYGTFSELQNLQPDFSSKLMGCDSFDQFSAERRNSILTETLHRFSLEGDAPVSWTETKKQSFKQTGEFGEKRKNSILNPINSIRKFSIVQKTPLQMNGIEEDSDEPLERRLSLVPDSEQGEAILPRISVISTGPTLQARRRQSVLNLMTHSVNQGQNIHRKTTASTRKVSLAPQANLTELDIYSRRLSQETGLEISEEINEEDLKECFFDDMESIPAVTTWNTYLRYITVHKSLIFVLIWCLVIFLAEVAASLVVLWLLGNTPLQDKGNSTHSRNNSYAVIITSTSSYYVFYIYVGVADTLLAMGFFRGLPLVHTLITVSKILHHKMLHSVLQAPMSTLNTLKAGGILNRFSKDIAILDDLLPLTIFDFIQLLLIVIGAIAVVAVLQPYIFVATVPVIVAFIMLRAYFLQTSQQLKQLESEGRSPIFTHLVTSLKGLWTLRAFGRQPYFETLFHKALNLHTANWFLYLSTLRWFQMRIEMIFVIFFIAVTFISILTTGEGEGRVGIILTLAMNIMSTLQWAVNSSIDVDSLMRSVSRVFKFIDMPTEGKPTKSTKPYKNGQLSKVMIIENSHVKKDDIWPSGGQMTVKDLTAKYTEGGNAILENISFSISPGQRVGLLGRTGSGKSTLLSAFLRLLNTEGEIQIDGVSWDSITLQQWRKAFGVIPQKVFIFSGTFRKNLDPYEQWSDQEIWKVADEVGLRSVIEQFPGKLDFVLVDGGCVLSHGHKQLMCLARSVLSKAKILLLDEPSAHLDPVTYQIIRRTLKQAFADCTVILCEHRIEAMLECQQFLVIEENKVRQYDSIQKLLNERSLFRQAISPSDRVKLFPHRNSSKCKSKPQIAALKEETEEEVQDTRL

Consider `COc1nc(C(C)(C)C)ccc1CN[C@H]1[C@H](C(C)(C)C)[C@@H](C(=O)O)N(C(=O)[C@@H]2OC[C@@H]3CCC[C@@H]32)[C@H]1c1ccccc1` (relative stereo) [II-431], for which, under setting [1], the Emax was 100 to 200%. The EC50 runs as follows: under setting [2], under 1000 nM; under setting [4], under 1000 nM. In addition, under setting [3], the “Maximum % activity (with co-corrector)” value is recorded as “+++ (≥350)”.
As to `COc1nc(C(C)(C)C)ccc1CN[C@H]1[C@H](C(C)(C)C)[C@@H](C(=O)O)N(C(=O)[C@H]2OC[C@H]3CCC[C@H]32)[C@H]1c1ccccc1` (relative stereo) [II-432], the Emax under setting [1] was under 100%. In addition, the concentration giving a half-maximal response (EC50) reads like this: under setting [2], 1000 to 10000 nM; under setting [4], 1000 to 10000 nM. Besides, the “Maximum % activity (with co-corrector)” value under setting [3] is “+++ (≥350)”.
For `COc1ccc(C(C)(C)C)cc1CN[C@H]1[C@H](C(C)(C)C)[C@@H](C(=O)O)N(C(=O)[C@H]2CCC[C@H](OC)C2)[C@H]1c1cccnc1N(C)C` (relative stereo) [II-448], the Emax under setting [1] is over 200%. The EC50 is 1000 to 10000 nM under setting [2] and 1000 to 10000 nM under setting [4]. The “Maximum % activity (with co-corrector)” value under setting [3] is on record as “+++ (≥350)”.
`COc1ccc(C(C)(C)C)cc1CN[C@H]1[C@H](C(C)(C)C)[C@@H](C(=O)O)N(C(=O)[C@@H]2CCC[C@@H](OC)C2)[C@H]1c1cccnc1N(C)C` (relative stereo) [II-449]: under setting [1], the Emax was over 200%. In addition, the EC50 is 1000 to 10000 nM under setting [2] and under 1000 nM under setting [4]. Moreover, the “Maximum % activity (with co-corrector)” value under setting [3] is “+++ (≥350)”.
For `COc1ccc(C(C)(C)C)cc1CN[C@H]1[C@H](C(C)(C)C)[C@@H](C(=O)O)N(C(=O)[C@H](C)[C@@H]2CCCCO2)[C@H]1c1ccccc1` (relative stereo) [II-454] the same measures were 100 to 200%, 1000 to 10000 nM, 1000 to 10000 nM and “+++ (≥350)”.
`COc1ccc(C(C)(C)C)cc1CN[C@H]1[C@H](C(C)(C)C)[C@@H](C(=O)O)N(C(=O)[C@@H](C)[C@H]2CCCCO2)[C@H]1c1ccccc1` (relative stereo) [II-455]: the Emax under setting [1] is over 200%. Besides, the EC50 under setting [2] fell in the range of 1000 to 10000 nM and the EC50 under setting [4] is 1000 to 10000 nM. For the same compound, under setting [3], the “Maximum % activity (with co-corrector)” value is “+++ (≥350)”.
Consider `COc1nc(C(C)(C)C)ccc1CN[C@H]1[C@H](C(C)(C)C)[C@@H](C(=O)O)N(C(=O)[C@H]2CCC[C@@H](OC)C2)[C@H]1c1ccccc1` (relative stereo) [II-456], for which the Emax under setting [1] was over 200%. Besides, the EC50 lay within 1000 to 10000 nM under setting [2] and 1000 to 10000 nM under setting [4]. In addition, under setting [3], the “Maximum % activity (with co-corrector)” value is on record as “+++ (≥350)”.
On to `COc1ccc(C(C)(C)C)cc1CN[C@H]1[C@H](C(C)(C)C)[C@@H](C(=O)O)N(C(=O)[C@@H]2[C@H](C(F)(F)F)[C@@H]3CC[C@H]2O3)[C@H]1c1cccnc1N(C)C` (relative stereo) [II-473], for which the Emax under setting [1] was over 200%. Further, the EC50 is 1000 to 10000 nM under setting [2] and under 1000 nM under setting [4]. Under setting [3], the “Maximum % activity (with co-corrector)” value was “+++ (≥350)”.
For `COc1nc(C(C)(C)C)ncc1CN[C@H]1[C@H](C(C)(C)C)[C@@H](C(=O)O)N(C(=O)C2CCCC(F)(F)C2)[C@H]1c1ccccc1` (relative stereo) [II-477] the same measures were 100 to 200%, under 1000 nM, 1000 to 10000 nM and “+++ (≥350)”.
Regarding `Cc1cc(C(F)(F)F)cc(N[C@H]2[C@H](C(C)(C)C)[C@@H](C(=O)O)N(C(=O)C3CCCCO3)[C@H]2c2cccnc2N(C)C)n1` (relative stereo) [II-504], the Emax under setting [1] is under 100%. The concentration giving a half-maximal response (EC50) is 1000 to 10000 nM under setting [2] and 1000 to 10000 nM under setting [4]. For the same compound, the “Maximum % activity (with co-corrector)” value under setting [3] is “++ (≥150 and <350)”.
With `COc1ccc(C(C)(C)C)cc1CN[C@H]1[C@H](C(C)(C)C)[C@@H](C(=O)O)N(C(=O)[C@@H]2[C@@H](C(F)(F)F)[C@@H]3CC[C@H]2O3)[C@H]1c1ccccc1` (relative stereo) [II-505], the Emax under setting [1] was over 200%. The EC50 is 1000 to 10000 nM under setting [2] and under 1000 nM under setting [4]. Moreover, the “Maximum % activity (with co-corrector)” value under setting [3] is on record as “+++ (≥350)”.
